For orientation: EC50 means the concentration that produces a half-maximal response.

Where only a bound is given, the exact number is not on record here.

Assay [1] concerns the target T1, hTREM2 (Homo sapiens, UniProt Q9NZC2). Put plainly: Phospho-Syk AlphaLisa assay in HEK293T-hTREM2 cells expressing human TREM2 and DAP12 (Example A2). The format is cell-based. Also noted: expressed in transfected cells; host or cells: HEK293T-hTREM2 cells. The settings on record: HEK293 cells, Syk phosphorylation, Examples 276-283. As for the experimental part:
Measurement of TREM2 agonist potency was done using a HEK cell line expressing human TREM2 and DAP12 (HEK293T-hTREM2 cells). Binding of small molecules to, and activation of, TREM2 increases the phosphorylation of Syk. The resultant levels of Syk phosphorylation were measured using a commercial AlphaLisa reagent kit. To perform the assay, HEK-hTREM2 cells were plated at 14,000 cells per well in a 384 well plate, in 25 μL of complete growth media and incubated at 37° C., 5% CO2 for 20-24 hours. Prior to the assay, test compounds were diluted in the 384 well plates in assay buffer and allowed to equilibrate for 30 minutes. Growth media was removed from cell plates by inversion on blotting paper, and 25 μL of test compounds in assay buffer was added to cells. Cells were incubated for 45 minutes at room temperature. After 45 minutes, assay buffer was removed and 10 μL of lysis buffer was added. Plates were shaken for 20 minutes at 350 RPM at room temperature. After complete lysis, AlphaLisa reagents were added to the lysate, and fluorescence intensity was measured using a Perkin Elmer Envision plate reader. Intensities were used to generate a standard curve, and % activation was calculated. Curve fitting was performed using Prism v9 software, log(agonist) vs response—variable slope (four parameters), and EC50s were calculated from the curve fit.
The results presented in Table 11 have been generated with the in vitro assay described above for Examples 276-283. This assay may be used to test any of the compounds described herein to assess and characterize a compound's ability to act as an agonist of TREM2.
Background: In Alpha technology, singlet oxygen from a donor bead excites a nearby acceptor bead.

For assay [2], the target named is T1, hTREM2. Put plainly: Phospho-Syk AlphaScreen/AlphaLISA assay in TREM2 and DAP12 overexpressing HEK293 cells (Example A1). The format is cell-based. Also noted: expressed in transfected cells. Conditions: HEK293 cells. Summed up: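 Agonism read as Syk phosphorylation: compounds in 1% DMSO applied 45 min at room temperature to TREM2/DAP12-HEK293 cells after 20 h culture. Lysis buffer with phosphatase inhibitors and anti-phospho-Syk plus biotinylated anti-Syk antibodies, then AlphaLISA beads (680 nm excitation); percent of control computed from antibody/isotype wells, curves fitted sigmoidally.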

T1 sequence (Q9NZC2 19-230): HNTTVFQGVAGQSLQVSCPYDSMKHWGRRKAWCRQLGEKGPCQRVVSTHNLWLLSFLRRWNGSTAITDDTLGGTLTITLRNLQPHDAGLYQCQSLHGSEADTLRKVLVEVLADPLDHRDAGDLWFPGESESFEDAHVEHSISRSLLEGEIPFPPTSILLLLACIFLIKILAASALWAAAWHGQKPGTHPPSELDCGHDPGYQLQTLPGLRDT
T1 sequence (O43914 22-113 partner): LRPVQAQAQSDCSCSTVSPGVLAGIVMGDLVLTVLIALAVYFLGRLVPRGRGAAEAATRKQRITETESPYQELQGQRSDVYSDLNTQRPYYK

`Cc1cc([C@H]2C[C@@H](c3cc4nc(C)n(C)c(=O)c4c(-c4ccc(F)cc4F)n3)CCO2)ccn1` (racemic) [Example 278, 5-(2,4-difluorophenyl)-2,3-dimethyl-7-(2-(2-methylpyridin-4-yl)tetrahydro-2H-pyran-4-yl)pyrido[4,3-d]pyrimidin-4(3H)-one] showed an EC50 on hTREM2 [1] of 50 to 500 nM.
Regarding `Cc1cc([C@H]2C[C@@H](c3cc4nc(C)n(C)c(=O)c4c(C45CC(C(F)(F)F)(C4)C5)n3)CCO2)ccn1` (racemic) [Example 281, 2,3-dimethyl-7-(2-(2-methylpyridin-4-yl)tetrahydro-2H-pyran-4-yl)-5-(3-(trifluoromethyl)bicyclo[1.1.1]pentan-1-yl)pyrido[4,3-d]pyrimidin-4(3H)-one], the EC50 on hTREM2 [1] was < 50 nM.
Same read-out and setting: the result for `Cc1cc(C2CN(c3cc4nc(C)n(C)c(=O)c4c(-c4ccc(F)cc4F)n3)CCO2)ccn1` (stereo not shown) [Example 276, 5-(2,4-difluorophenyl)-2,3-dimethyl-7-(2-(2-methylpyridin-4-yl)morpholino)pyrido[4,3-d]pyrimidin-4(3H)-one] reads < 50 nM; that for `Cc1cc([C@H]2C[C@@H](c3cc4nc(C)n(C)c(=O)c4c(-c4ccc(C(F)(F)F)nc4)n3)CCO2)ccn1` [Example 277, 2,3-dimethyl-7-(2-(2-methylpyridin-4-yl)tetrahydro-2H-pyran-4-yl)-5-(6-(trifluoromethyl)pyridin-3-yl)pyrido[4,3-d]pyrimidin-4(3H)-one], 50 to 500 nM.
For `COc1cc(C2CN(c3cc4nc(C)n(C)c(=O)c4c(-c4ccc(F)cc4F)n3)CCO2)ccn1` (stereo not shown) [Example 279, 5-(2,4-difluorophenyl)-7-(2-(2-methoxypyridin-4-yl)morpholino)-2,3-dimethylpyrido[4,3-d]pyrimidin-4(3H)-one], at hTREM2 [1], the EC50 was < 50 nM.
`Cc1cc(C2CN(c3cc4nc(C)n(C)c(=O)c4c(-c4ccc(C(F)(F)F)nc4)n3)CCO2)ccn1` (stereo not shown) [Example 280, 2,3-dimethyl-7-(2-(2-methylpyridin-4-yl)morpholino)-5-(6-(trifluoromethyl)pyridin-3-yl)pyrido[4,3-d]pyrimidin-4(3H)-one]: the EC50 at hTREM2 [1] was < 50 nM.
With `Cc1cc(C2CN(c3cc4nc(C)n(C)c(=O)c4c(C45CC(C(F)(F)F)(C4)C5)n3)CCO2)ccn1` (stereo not shown) [Example 282, 2,3-dimethyl-7-(2-(2-methylpyridin-4-yl)morpholino)-5-(3-(trifluoromethyl)bicyclo[1.1.1]pentan-1-yl)pyrido[4,3-d]pyrimidin-4(3H)-one], the concentration giving a half-maximal response (EC50) on hTREM2 [1] was < 50 nM.
`COc1cc(C2CN(c3cc4nc(C)n(C)c(=O)c4c(C45CC(C(F)(F)F)(C4)C5)n3)CCO2)ccn1` (stereo not shown) [Example 283, 7-(2-(2-methoxypyridin-4-yl)morpholino)-2,3-dimethyl-5-(3-(trifluoromethyl)bicyclo[1.1.1]pentan-1-yl)pyrido[4,3-d]pyrimidin-4(3H)-one] came in with an EC50 at hTREM2 [1] of 50 to 500 nM.
For the molecule “ethyl (2S,4S)-4-(5-(4-chloro-2-fluorophenyl)-2,3-dimethyl-4-oxo-3,4-dihydropyrido[4,3-d]pyrimidin-7-yl)tetrahydro-2H-pyran-2-carboxylate and ethyl (2R,4R)-4-(5-(4-chloro-2-fluorophenyl)-2,3-dimethyl-4-oxo-3,4-dihydropyrido[4,3-d]pyrimidin-7-yl)tetrahydro-2H-pyran-2-carboxylate [Example 168]”, the Emax entry at hTREM2 [2] was “+++ (Emax>200 and ≤300)”. The 50% effective concentration (EC50) at hTREM2 [2] (read-out: hTREM2 EC50) lay in the range of 3 to 100 µM.

The record behind these values is US20250388574A1, “HETEROCYCLIC COMPOUNDS AS TRIGGERING RECEPTOR EXPRESSED ON MYELOID CELLS 2 AGONISTS AND METHODS OF USE” (AMGEN INC., priority 2020, published 2025).
